Like-named read-outs stand apart in the source and are kept apart here. Each block holds one molecule with its values, some of them ahead of it.
Tested on: IL-1β production in PMA-differentiated THP-1 cells
Assay: IL-1β production in PMA-differentiated THP-1 cells stimulated with gramicidin (hTHP-1 assay containing 2% fetal bovine serum)
Format: cell-based, human
Details: 2% fetal bovine serum, read-out: hTHP-1 IC50 (Average IC50 of compounds in hTHP-1 assay)
Protocol: Procedure 1: IL-1β Production in PMA-Differentiated THP-1 Cells Stimulated with Gramicidin.
THP-1 cells were purchased from the American Type Culture Collection and sub-cultured according to instructions from the supplier. Cells were cultured in complete RPMI 1640 (containing 10% heat inactivated FBS, penicillin (100 units/ml) and streptomycin (100 μg/ml)), and maintained in log phase prior to experimental setup. Prior to the experiment, compounds were dissolved in dimethyl sulfoxide (DMSO) to generate a 30 mM stock. The compound stock was first pre-diluted in DMSO to 3, 0.34, 0.042 and 0.0083 mM intermediate concentrations and subsequently spotted using Echo550 liquid handler into an empty 384-well assay plate to achieve desired final concentration (e.g. 100, 33, 11, 3.7, 1.2, 0.41, 0.14, 0.046, 0.015, 0.0051, 0.0017 μM). DMSO was backfilled in the plate to achieve a final DMSO assay concentration of 0.37%. The plate was then sealed and stored at room temperature until required.
THP-1 cells were treated with PMA (Phorbol 12-myristate 13-acetate) (20 ng/ml) for 16-18 hours. On the day of the experiment the media was removed and adherent cells were detached with trypsin for 5 minutes. Cells were then harvested, washed with complete RPMI 1640, spun down, and resuspended in RPMI 1640 (containing 2% heat inactivated FBS, penicillin (100 units/ml) and streptomycin (100 μg/ml). The cells were plated in the 384-well assay plate containing the spotted compounds at a density of 50,000 cells/well (final assay volume 50 μl). Cells were incubated with compounds for 1 hour and then stimulated with gramicidin (5 μM) (Enzo) for 2 hours. Plates were then centrifuged at 340 g for 5 min. Cell free supernatant (40 μL) was collected using a 96-channel PlateMaster (Gilson) and the production of IL-1β was evaluated by HTRF (cisbio). The plates were incubated for 18 h at 4° C. and read using the preset HTRF program (donor emission at 620 nm, acceptor emission at 668 nm) of the SpectraMax i3x spectrophotometer (Molecular Devices, software SoftMax 6). A vehicle only control and a dose titration of CRID3 (100-0.0017 μM) were run concurrently with each experiment.
Procedure 2: IL-1β Production in PMA-Differentiated THP-1 Cells Stimulated with Gramicidin.
THP-1 cells were purchased from the American Type Culture Collection and sub-cultured according to instructions from the supplier. Prior to experiments, cells were cultured in complete RPMI 1640 (containing 10% heat inactivated FBS, penicillin (100 units/ml) and streptomycin (100 μg/ml)), and maintained in log phase prior to experimental setup. Prior to the experiment THP-1 were treated with PMA (Phorbol 12-myristate 13-acetate) (20 ng/ml) for 16-18 hours. Compounds were dissolved in dimethyl sulfoxide (DMSO) to generate a 30 mM stock. On the day of the experiment the media was removed and adherent cells were detached with trypsin for 5 minutes. Cells were then harvested, washed with complete RPMI 1640, spun down, resuspended in RPMI 1640 (containing 2% heat inactivated FBS, penicillin (100 units/ml) and streptomycin (100 μg/ml). The cells were plated in a 384-well plate at a density of 50,000 cells/well (final assay volume 50 μl). Compounds were first dissolved in assay medium to obtain a 5× top concentration of 500 μM. 10 step dilutions (1:3) were then undertaken in assay medium containing 1.67% DMSO. 5× compound solutions were added to the culture medium to achieve desired final concentration (e.g. 100, 33, 11, 3.7, 1.2, 0.41, 0.14, 0.046, 0.015, 0.0051, 0.0017 μM). Final DMSO concentration was at 0.37%. Cells were incubated with compounds for 1 hour and then stimulated with gramicidin (5 μM) (Enzo) for 2 hours. Plates were then centrifuged at 340 g for 5 min. Cell free supernatant (40 μL) was collected using a 96-channel PlateMaster (Gilson) and the production of IL-1β was evaluated by HTRF (cisbio). A vehicle only control and a dose titration of CRID3 (100-0.0017 μM) were run concurrently with each experiment. […]

[1] = Homo sapiens, THP-1, Table B2, cells printed as numeric bound
[2] = Homo sapiens, THP-1, Table B2, class symbols
[3] = Homo sapiens, THP-1, Table B1, class symbols

- IC50 (Homo sapiens, THP-1, Table B1, cells printed as numeric bound): > 30 µM
Molecule: CC(C)c1cc(F)cc(C(C)C)c1C(C)C(=O)N=S(N)(=O)c1cnc(C(C)(C)O)s1 (racemic) [Example 193, (S, S) and (S, R)-N-(amino (2-(2-hydroxypropan-2-yl)thiazol-5-yl)(oxo)-λ^6-sulfaneylidene)-2-(4-fluoro-2,6-diisopropylphenyl) propanamide]

- IC50 (Table B2, class symbols): 0.2 to 1 µM
Molecule: CC(C)c1cc(F)cc(C(C)C)c1CC(=O)N=S(N)(=O)c1sc(C(C)(C)O)nc1CO (racemic) [Example 356, (R) and (S)—N-(amino(4-(hydroxymethyl)-2-(2-hydroxypropan-2-yl)thiazol-5-yl)(oxo)-λ^6-sulfaneylidene)-2-(4-fluoro-2,6-diisopropylphenyl)acetamide]

- IC50 [2]: 5 to 30 µM
Molecule: COc1ccc(C(C)(C)O)cc1S(N)(=O)=NC(=O)Cc1c(C(C)C)cc(C#N)cc1C(C)C (racemic) [Example 387, (R) and (S)—N-(amino(5-(2-hydroxypropan-2-yl)-2-methoxyphenyl)(oxo)-λ^6-sulfaneylidene)-2-(4-cyano-2,6-diisopropylphenyl)acetamide]

- IC50 (Table B1, class symbols): 1 to 5 µM
Molecule: CC(C)c1cc(C#N)c(F)c(C(C)C)c1CC(=O)N=S(N)(=O)c1ncc(C(C)(C)O)s1 (single isomer, unassigned) [Example 43]

- IC50 (Table B1, class symbols): 1 to 5 µM
Molecule: CC(C)c1cc(C#N)c(F)c(C(C)C)c1CC(=O)N=S(N)(=O)c1sc(C(C)(C)O)cc1F (single isomer, unassigned) [Example 45, (R)- or (S)-2-(4-cyano-3-fluoro-2,6-diisopropylphenyl)-N-(3-fluoro-5-(2-hydroxypropan-2-yl)thiophen-2-ylsulfonimidoyl)acetamide]

- IC50 (Table B1, class symbols): 0.008 to 0.04 µM
Molecule: CC(C)c1cc(F)cc(C(C)C)c1CC(=O)N=S(N)(=O)c1sc(C(C)(C)O)cc1F (single isomer, unassigned) [Example 50, (S)- or (R)-2-(4-fluoro-2,6-diisopropylphenyl)-N-(3-fluoro-5-(2-hydroxypropan-2-yl)thiophen-2-ylsulfonimidoyl)acetamide]

Second part, the molecule before the results:

Molecule: 2-(4-Fluoro-2,6-diisopropylphenyl)-N-(4-(2-hydroxypropan-2-yl)phenylsulfonimidoyl)acetamide [Example 1]
- IC50 (Table B1, class symbols): 5 to 30 µM

Molecule: CC(C)c1cc2c(c(C(C)C)c1CC(=O)N=S(N)(=O)c1ccn(CCO)n1)OC(F)(F)O2 (racemic) [Example 348, (R) and (S)—N-(amino(1-(2-hydroxyethyl)-1H-pyrazol-3-yl)(oxo)-λ^6-sulfaneylidene)-2-(2,2-difluoro-4,6-diisopropylbenzo[d][1,3]dioxol-5-yl)acetamide]
- IC50 (Table B2, class symbols): 0.2 to 1 µM

Molecule: CC(C)c1cc2c(c(C(C)C)c1CC(=O)N=S(N)(=O)c1ccn(CCO)n1)OC(F)(F)O2 (racemic) [Example 349, (R) and (S)—N-(amino(1-(2-hydroxyethyl)-1H-pyrazol-3-yl)(oxo)-λ^6-sulfaneylidene)-2-(2,2-difluoro-4,6-diisopropylbenzo[d][1,3]dioxol-5-yl)acetamide]
- IC50 (Table B2, class symbols): 5 to 30 µM

Molecule: CC(C)c1cc(C#N)c(F)c(C(C)C)c1CC(=O)N=S(N)(=O)c1sc(C(C)(C)O)nc1CO (racemic) [Example 352, (S) and (R)—N-(amino(4-(hydroxymethyl)-2-(2-hydroxypropan-2-yl)thiazol-5-yl)(oxo)-λ^6-sulfaneylidene)-2-(4-cyano-3-fluoro-2,6-diisopropylphenyl)acetamide]
- IC50 (Table B2, class symbols): 0.2 to 1 µM

Molecule: CC(C)c1cc(C#N)c(F)c(C(C)C)c1CC(=O)N=S(N)(=O)c1sc(C(C)(C)O)nc1CO (racemic) [Example 353, (S) and (R)—N-(amino(4-(hydroxymethyl)-2-(2-hydroxypropan-2-yl)thiazol-5-yl)(oxo)-λ^6-sulfaneylidene)-2-(4-cyano-3-fluoro-2,6-diisopropylphenyl)acetamide]
- IC50 (Table B2, class symbols): 5 to 30 µM

Molecule: CC(C)c1cc(F)cc(C(C)C)c1CC(=O)N=S(N)(=O)c1sc(C(C)(C)O)nc1CO (racemic) [Example 357, (R) and (S)—N-(amino(4-(hydroxymethyl)-2-(2-hydroxypropan-2-yl)thiazol-5-yl)(oxo)-λ^6-sulfaneylidene)-2-(4-fluoro-2,6-diisopropylphenyl)acetamide]
- IC50 (Table B2, class symbols): 5 to 30 µM

Molecule: CNCc1ccc(S(N)(=O)=NC(=O)Cc2c(-c3ccccc3)ccc3c2CCC3)cc1 (racemic) [Example 380, (R) and (S)—N-(amino(4-((methylamino)methyl)phenyl)(oxo)-λ^6-sulfaneylidene)-2-(5-phenyl-2,3-dihydro-1H-inden-4-yl)acetamide]
- IC50 [1]: > 30 µM

Molecule: CNCc1ccc(S(N)(=O)=NC(=O)Cc2c(-c3ccccc3)ccc3c2CCC3)cc1 (racemic) [Example 381, (R) and (S)—N-(amino(4-((methylamino)methyl)phenyl)(oxo)-λ^6-sulfaneylidene)-2-(5-phenyl-2,3-dihydro-1H-inden-4-yl)acetamide]
- IC50 [2]: 5 to 30 µM

Molecule: COc1ccc(C(C)(C)O)cc1S(N)(=O)=NC(=O)Cc1c(C(C)C)cc(C#N)cc1C(C)C (racemic) [Example 388, (R) and (S)—N-(amino(5-(2-hydroxypropan-2-yl)-2-methoxyphenyl)(oxo)-λ^6-sulfaneylidene)-2-(4-cyano-2,6-diisopropylphenyl)acetamide]
- IC50 [1]: > 30 µM

Molecule: CC(C)c1cc(F)cc(C(C)C)c1CC(=O)NS(=N)(=O)c1ccc(C(C)(C)O)cc1 (single isomer, unassigned) [Example 2]
- IC50 [3]: 1 to 5 µM

Molecule: CC(C)c1cc(F)cc(C(C)C)c1CC(=O)NS(=N)(=O)c1ncc(C(C)(C)O)s1 (single isomer, unassigned) [Example 9]
- IC50 [3]: 0.2 to 1 µM

Molecule: CC(C)c1cc(C#N)c(F)c(C(C)C)c1CC(=O)N=S(N)(=O)c1ncc(C(C)(C)O)s1 (single isomer, unassigned) [Example 42]
- IC50 (Table B1, class symbols): 0.04 to 0.2 µM

Molecule: CC(C)c1cc(C#N)c(F)c(C(C)C)c1CC(=O)N=S(N)(=O)c1sc(C(C)(C)O)cc1F (single isomer, unassigned) [Example 44, (S)- or (R)-2-(4-cyano-3-fluoro-2,6-diisopropylphenyl)-N-(3-fluoro-5-(2-hydroxypropan-2-yl)thiophen-2-ylsulfonimidoyl)acetamide]
- IC50 (Table B1, class symbols): 0.04 to 0.2 µM

Molecule: CC(C)c1cc(OC(F)F)cc(C(C)C)c1CC(=O)N=S(N)(=O)c1cnc(C(C)(C)O)s1 (single isomer, unassigned) [Example 48, (S)- or (R)-2-(4-(difluoromethoxy)-2,6-diisopropylphenyl)-N-(2-(2-hydroxypropan-2-yl)thiazol-5-ylsulfonimidoyl)acetamide]
- IC50 (Table B1, class symbols): 0.04 to 0.2 µM

Molecule: CC(C)c1cc(OC(F)F)cc(C(C)C)c1CC(=O)N=S(N)(=O)c1cnc(C(C)(C)O)s1 (single isomer, unassigned) [Example 49, (R)- or (S)-2-(4-(difluoromethoxy)-2,6-diisopropylphenyl)-N-(2-(2-hydroxypropan-2-yl)thiazol-5-ylsulfonimidoyl)acetamide]
- IC50 (Table B1, class symbols): 5 to 30 µM
